Experiments:
[1] = biological target: T1, Hexim-1 binding to 7SK snRNP (Homo sapiens, UniProt O94992); experiment: RNA immunoprecipitation of 7SK snRNP by intracellular Hexim-1; assay type: cell-based; settings: HeLa-CD4-LTR-LacZ cells, 48 h
T1 construct: endogenous in cells; host or cells: HeLa-CD4-LTR-LacZ (RNA immunoprecipitation); HeLa-CD4-LTR-Luc (immunofluorescence)
Text: (A) Sequence of the basic domains of HIV Tat HXB3, HIV Rev Bru and intracellular Hexim-1. […] Shown is confocal microscopy analysis of the subcellular localization of transfected FLAG-Tat or FLAG-Rev in the presence of DMSO or dCA in HeLa-CD4-LTR-Luc cells. Proteins were recognized with anti-FLAG and Alexa Fluor 568-tagged anti-IgG. Magnification 60×. Data are representative of n = 2 independent experiments. (C) Quantification of the nucleolar fluorescence of panel B using ImageJ. Data are the mean ± SEM from 3 to 4 different cells. […] HeLa-CD4-LTR-LacZ cells were infected with strain NL4-3 for 24 hours. The next day, compounds (dCA, 10 nM; KPT, 400 nM; and SCM, 10 nM) were added for 24 hours. Total, nuclear, and cytoplasmic mRNAs were extracted, and viral messages were determined by qRT-PCR. GAPDH was used for normalization. Data are the mean ± SD from n = 5 independent experiments. […] (G) Quantification of nuclear fluorescence of panel F using ImageJ. […] Statistical significance was determined using one-way ANOVA with post hoc Tukey’s test. ns, not significant; ***, P < 0.0001; **, P < 0.001.
Hexim-1 directly binds to cyclin T1 and is responsible for the inactivation of the kinase activity of P-TEFb ([35], [36]). […] Intracellular Hexim-1 was immunoprecipitated, and 7SK snRNP bound to Hexim-1 was extracted, reverse transcribed, and quantified by qRT-PCR as previously described ([42]) (Fig. 3E). […]

Trp^11 of Tat protein = biological target: T2, Trp^11 of Tat protein (Human immunodeficiency virus type 1 group M subtype B, UniProt P69697); experiment: Trp fluorescence assay of recombinant Tat; assay type: binding, HIV-1; settings: for effect on intrinsic Trp fluorescence of Tat: compound/Tat ratio of 7.5/1
T2 construct: pTatC6H-1 (NIH AIDS Reagent Program) plasmid encoding C-terminal 6xHistidine Tat1-86 (HXB3, subtype B); made in house; host or cells: E. coli BL21 (plasmid pTatC6H-1, NIH AIDS Reagent Program)
T2 sequence (P69697 whole entry): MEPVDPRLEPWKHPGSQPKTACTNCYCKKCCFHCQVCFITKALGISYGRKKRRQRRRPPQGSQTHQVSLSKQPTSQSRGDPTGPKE
Text: Next, we investigated whether dCA mediated conformational changes in Tat. NMR studies have reported the fluorescence of Tat’s unique Trp^11 to be highly sensitive to conformational modifications ([2], [15]). As such, we assessed Tat fluorescence between wavelengths of 310 nm and 410 nm (Fig. 5A, left).
FIG 5 dCA stabilizes Tat structure. (A) Trp fluorescence assays. (Left) Schematic of the assay. (Center) DMSO, dCA (7.5× Tat concentration) or raltegravir (Ralt.; 7.5× Tat concentration) was incubated with Tat. The fluorescence of the Trp^11 of Tat protein was measured at the indicated wavelengths. Acrylamide (250 mM) was used as a quenching control of Tat fluorescence. (Right) Peak absorbance (λmax) versus increasing fold ratios of compounds to Tat protein. Data are representative of n = 3 independent experiments. (B) DARTS assays. Tat was incubated with DMSO or dCA, at increasing concentrations, in the presence of increasing concentrations of proteinase K (PK). […] Data are representative of n = 2 independent experiments. (C) Steady state of Tat in the presence of dCA in vivo. HeLa-CD4-LTR-Luc cells were incubated with recombinant Tat and then washed and incubated with the indicated compounds for 6 hours. […] (Left) Western blot representative of n = 4 independent experiments. MG132 was used as a positive control of Tat protection from degradation, and raltegravir was used as a negative control. (Right) Densitometry of the Tat band normalized to the actin band. Results represent the mean ± SEM from n = 4 independent experiments. Statistical significance was determined using one-way ANOVA with post hoc Tukey’s test. ns, not significant; ***, P < 0.0001; **, P < 0.001.
Recombinant Tat (2.5 μM) was incubated with different concentrations of dCA or raltegravir in a 96-well plate. The solution was excited at 280 nm, and the emission of Trp fluorescence was read from 310 to 410 nm. The background induced by the compounds alone or buffer of dilution was subtracted from the Trp signal. Acrylamide (250 mM) was used as a quencher of the fluorescence.

T1 sequence (O94992 whole entry): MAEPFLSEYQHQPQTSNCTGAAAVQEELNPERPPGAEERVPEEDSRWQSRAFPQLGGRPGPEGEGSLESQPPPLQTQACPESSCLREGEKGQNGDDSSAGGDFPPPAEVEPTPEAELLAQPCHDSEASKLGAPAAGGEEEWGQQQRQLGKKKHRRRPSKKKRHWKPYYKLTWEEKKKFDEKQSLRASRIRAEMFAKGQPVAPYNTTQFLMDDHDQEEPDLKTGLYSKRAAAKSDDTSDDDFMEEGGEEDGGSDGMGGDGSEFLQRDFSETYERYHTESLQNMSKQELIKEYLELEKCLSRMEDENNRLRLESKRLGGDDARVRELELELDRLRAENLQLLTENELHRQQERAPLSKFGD

Q: For `C[C@@](Cc1ccc(O)c(O)c1)(NN)C(=O)O.O` [SCM, S-(−)-carbidopamonohydrate, reference compound], which “interaction between Hexim-1 and 7SK snRNP” value [1] is on record?
A: Its value is “similarly detected”.

Q: Which results are given for `CN(C)C1CC23CCC4(O2)C(=CCC2(C)C(c5ccc6ccncc6c5)=CCC24)C=C3C(O)C1O` (stereo not drawn) [dCA, didehydro-cortistatin A]?
A: λmax of Tat Trp fluorescence (Trp^11 of Tat protein; compound/Tat ratio 7.5/1, Tat alone 360 nm): 350 nm; effect on intrinsic Trp fluorescence of Tat (Trp^11 of Tat protein): decreased intensity of the Trp fluorescence; I330/350 ratio of Tat Trp fluorescence (Trp^11 of Tat protein; dCA/Tat ratio of 7.5/1, Tat alone 0.73): 0.893; interaction between Hexim-1 and 7SK snRNP [1]: similarly detected

Q: How did the “effect on intrinsic Trp fluorescence of Tat” value (Trp^11 of Tat protein) turn out when `Cc1nnc(C(=O)NC(C)(C)c2nc(C(=O)NCc3ccc(F)cc3)c(O)c(=O)n2C)o1` [raltegravir, reference compound] was run?
A: Its value is “no effect on the intrinsic fluorescence of Tat”.

— paper PMC6368365, “Didehydro-Cortistatin A Inhibits HIV-1 by Specifically Binding to the Unstructured Basic Region of Tat” (mBio, 2019)
